Values joined by “and” are separate entries in the source; they are usually repeats but may differ in a detail not shown here. Identical values can stand only once. Toxic doses and inconclusive results are not listed.
Test system: P388 leukemia ip, CD2F1 mice, survival T/C
Experiment: NCI In Vivo Anticancer Drug Screen. Data for tumor model P388 Leukemia (intraperitoneal) in CD2F1 (CDF1) mice
Conditions: endpoint: median survival time, higher = longer survival
Method in brief: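 Mice carrying the transplanted tumor received test compound or vehicle. Survival was recorded in each group, and the value is the treated-group measurement divided by that of the vehicle-treated control group.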

[1] = dose: 100.0 mg/kg/injection, schedule: Q01DX009 (ip), vehicle: saline with Tween-80
[2] = dose: 200.0 mg/kg/injection, schedule: Q01DX009 (ip), vehicle: saline with Tween-80
[3] = dose: 3.12 mg/kg/injection, schedule: Q01DX005 (ip), vehicle: Klucel (hydroxypropylcellulose) (HPC)
[4] = dose: 6.25 mg/kg/injection, schedule: Q01DX005 (ip), vehicle: Klucel (hydroxypropylcellulose) (HPC)
[5] = dose: 12.5 mg/kg/injection, schedule: Q01DX005 (ip), vehicle: Klucel (hydroxypropylcellulose) (HPC)
[6] = dose: 50.0 mg/kg/injection, schedule: Q01DX009 (ip), vehicle: saline
[7] = dose: 100.0 mg/kg/injection, schedule: Q01DX009 (ip), vehicle: saline
[8] = dose: 200.0 mg/kg/injection, schedule: Q01DX009 (ip), vehicle: saline
[9] = dose: 50.0 mg/kg/injection, schedule: Q01DX009 (ip), vehicle: saline with Tween-80
[10] = dose: 50.0 mg/kg/injection, schedule: Q01DX009 (ip), vehicle: Klucel (hydroxypropylcellulose) (HPC)
[11] = dose: 100.0 mg/kg/injection, schedule: Q01DX009 (ip), vehicle: Klucel (hydroxypropylcellulose) (HPC)
[12] = dose: 25.0 mg/kg/injection, schedule: Q01DX009 (ip), vehicle: saline with Tween-80
[13] = dose: 60.0 mg/kg/injection, schedule: Q01DX005 (ip), vehicle: Klucel (hydroxypropylcellulose) (HPC)
[14] = dose: 120.0 mg/kg/injection, schedule: Q01DX005 (ip), vehicle: Klucel (hydroxypropylcellulose) (HPC)
[15] = dose: 240.0 mg/kg/injection, schedule: Q01DX005 (ip), vehicle: Klucel (hydroxypropylcellulose) (HPC)
[16] = dose: 25.0 mg/kg/injection, schedule: Q01DX009 (ip), vehicle: saline
[17] = dose: 60.0 mg/kg/injection, schedule: Q01DX005 (ip), vehicle: saline with Tween-80
[18] = dose: 120.0 mg/kg/injection, schedule: Q01DX005 (ip), vehicle: saline with Tween-80
[19] = dose: 100.0 mg/kg/injection, schedule: Q01DX001 (ip), vehicle: saline with Tween-80
[20] = dose: 200.0 mg/kg/injection, schedule: Q01DX001 (ip), vehicle: saline with Tween-80
[21] = dose: 400.0 mg/kg/injection, schedule: Q01DX001 (ip), vehicle: saline with Tween-80
[22] = dose: 25.0 mg/kg/injection, schedule: Q01DX005 (ip), vehicle: Klucel (hydroxypropylcellulose) (HPC)
[23] = dose: 50.0 mg/kg/injection, schedule: Q01DX005 (ip), vehicle: Klucel (hydroxypropylcellulose) (HPC)
[24] = dose: 100.0 mg/kg/injection, schedule: Q01DX005 (ip), vehicle: Klucel (hydroxypropylcellulose) (HPC)

With O=[N+]([O-])c1ccccc1SSc1ccccc1[N+](=O)[O-] the T/C [1] was 95 % of control, the T/C [2] was 104 % of control and the T/C (dose: 400.0 mg/kg/injection, schedule: Q01DX009 (ip), vehicle: saline with Tween-80) was 100 % of control.

For CCN(CC)CCCC(C)Nc1nccc2cccc(Cl)c12 (configuration not stated), the T/C (dose: 50.0 mg/kg/injection, schedule: Q01DX005 (ip), vehicle: saline) was 104 % of control and the T/C (dose: 100.0 mg/kg/injection, schedule: Q01DX005 (ip), vehicle: saline) was 104 % of control.

For CC(=O)OCC1(OC(=O)CC(C)C)COC(O)C2C(C=O)=CC=C21 (configuration not stated), the T/C [3] was 102 % of control, the T/C [4] was 100 % of control and the T/C [5] was 101 % of control.

In the case of COc1cccc(/C=C/c2ccnnc2)c1, the T/C [6] is reported as 96 % of control, the T/C [7] is reported as 95 % of control and the T/C [8] is reported as 95 % of control.

Cc1cc(Cl)ccc1NC(=O)/N=C1\NC(=O)CS1 was tested, and the T/C [9] was 87 % of control, the T/C [1] was 100 % of control and the T/C [2] was 110 % of control.

NC(=O)c1nn[nH]n1 was tested, and the T/C [10] was 97 % of control and the T/C [11] was 100 % of control.

With COc1cc2nc(C)n(C)c(=O)c2cc1OC the T/C (dose: 12.5 mg/kg/injection, schedule: Q01DX009 (ip), vehicle: saline with Tween-80) was 95 % of control, the T/C [12] was 116 % of control and the T/C [9] was 101 % of control.

With COC1=C(N)C(=O)c2cccnc2C1=O the T/C (dose: 3.13 mg/kg/injection, schedule: Q01DX009 (ip), vehicle: DMSO) was 92 % of control, the T/C (dose: 6.25 mg/kg/injection, schedule: Q01DX009 (ip), vehicle: DMSO) was 92 % of control and the T/C (dose: 12.5 mg/kg/injection, schedule: Q01DX009 (ip), vehicle: DMSO) was 100 % of control. The T/C (dose: 25.0 mg/kg/injection, schedule: Q01DX009 (ip), vehicle: DMSO) was 109 % of control.

CCCCCC(=O)O[C@H]1CC[C@@H]2[C@H]1[C@@H]1CC[C@H]3O[C@]31C2(C)C was tested, and the T/C [13] was 111 % of control, the T/C [14] was 111 % of control and the T/C [15] was 121 % of control.

With CN(C)[C@@H]1C(=O)C(C(=O)NCNC(CO)(CO)CO)=C(O)[C@@]2(O)C(=O)C3=C(O)c4c(O)cccc4[C@@](C)(O)[C@H]3C[C@@H]12 the T/C [16] was 100 % of control, the T/C [6] was 95 % of control and the T/C [7] was 100 % of control.

With CCOC(=O)CNC(=O)Nc1c(C)n(C)n(-c2ccccc2)c1=O the T/C [6] was 103 % of control, the T/C [7] was 100 % of control and the T/C [8] was 97 % of control.

With CNC(=O)OCc1c(COC(=O)NC)c(C)n(-c2ccc(Cl)c(Cl)c2)c1C the T/C (dose: 12.5 mg/kg/injection, schedule: Q01DX009 (ip), vehicle: saline) was 154 % of control and 160 % of control and the T/C [16] was 165 % of control.

FC(F)(F)c1ccccc1Nc1nnc(-c2ccc(Cl)cc2Cl)o1 was tested, and the T/C [17] was 100 % of control, the T/C [18] was 96 % of control and the T/C (dose: 240.0 mg/kg/injection, schedule: Q01DX005 (ip), vehicle: saline with Tween-80) was 87 % of control.

For O=C1NC(=O)N(c2ccc([N+](=O)[O-])cc2)C1=O, the T/C [10] was 86 % of control, the T/C [11] was 89 % of control and the T/C (dose: 200.0 mg/kg/injection, schedule: Q01DX009 (ip), vehicle: Klucel (hydroxypropylcellulose) (HPC)) was 86 % of control (2×) and 93 % of control.

In the case of Oc1ccc2ccccc2c1C=Nc1ccc(N=Cc2c(O)ccc3ccccc23)cc1, the T/C [19] is reported as 91 % of control, the T/C [20] is reported as 90 % of control and the T/C [21] is reported as 91 % of control.

In the case of NC(=S)c1cccc(C=O)n1, the T/C [12] is reported as 99 % of control, the T/C [9] is reported as 99 % of control and the T/C (dose: 50.0 mg/kg/injection, schedule: Q04DX003 (ip), vehicle: Klucel (hydroxypropylcellulose) (HPC)) is reported as 110 % of control. The T/C [1] was 97 % of control, the T/C (dose: 100.0 mg/kg/injection, schedule: Q04DX003 (ip), vehicle: Klucel (hydroxypropylcellulose) (HPC)) was 112 % of control and the T/C (dose: 200.0 mg/kg/injection, schedule: Q04DX003 (ip), vehicle: Klucel (hydroxypropylcellulose) (HPC)) was 114 % of control.

In the case of Nc1[nH]c(=S)[nH]c(=O)c1N=Nc1ccccc1, the T/C [19] is reported as 98 % of control, the T/C [20] is reported as 102 % of control and the T/C [21] is reported as 117 % of control.

O=C(/C=C/c1ccco1)c1ccc(Cl)cc1 was tested, and the T/C (dose: 50.0 mg/kg/injection, schedule: Q01DX001 (ip), vehicle: saline sonified) was 100 % of control, the T/C (dose: 100.0 mg/kg/injection, schedule: Q01DX001 (ip), vehicle: saline sonified) was 95 % of control and the T/C (dose: 200.0 mg/kg/injection, schedule: Q01DX001 (ip), vehicle: saline sonified) was 100 % of control.

In the case of CCOC(=O)c1cnn(C)c1N, the T/C (dose: 66.7 mg/kg/injection, schedule: Q01DX009 (ip), vehicle: saline with Tween-80) is reported as 97 % of control, the T/C [1] is reported as 110 % of control and the T/C (dose: 150.0 mg/kg/injection, schedule: Q01DX009 (ip), vehicle: saline with Tween-80) is reported as 105 % of control.

With C/C(=N\Nc1cc(C)nc2cc3c(cc12)OCO3)c1cn(C)n(-c2ccccc2)c1=O the T/C [3] was 97 % of control, the T/C [4] was 97 % of control and the T/C [5] was 103 % of control and 96 % of control. The T/C [22] was 100 % of control, the T/C [23] was 98 % of control and 110 % of control and the T/C [24] was 109 % of control.

With O=C(O)C1=CC2C=C(Cl)C=CC2OC1=O (configuration not stated) the T/C [17] was 100 % of control and the T/C [18] was 100 % of control.

CC(=O)Nc1ccc(/C=C\c2ccnc3ccccc23)cc1 was tested, and the T/C (dose: 25.0 mg/kg/injection, schedule: Q04DX002 (ip), vehicle: saline with Tween-80) was 109 % of control.

In the case of NCCSSc1ccccc1[N+](=O)[O-], the T/C [5] is reported as 98 % of control, the T/C [22] is reported as 94 % of control and the T/C [23] is reported as 98 % of control and 90 % of control.

CCOc1c(N=Nc2ccccc2C)c(C)nn1C(=S)S was tested, and the T/C [13] was 97 % of control, the T/C [14] was 95 % of control and the T/C [15] was 97 % of control.

Cc1ccc(NC(=O)OCCN(C)C)cc1Cl was tested, and the T/C (dose: 60.0 mg/kg/injection, schedule: Q01DX005 (ip), vehicle: Klucel + Tween-80) was 101 % of control, the T/C (dose: 120.0 mg/kg/injection, schedule: Q01DX005 (ip), vehicle: Klucel + Tween-80) was 99 % of control and the T/C (dose: 240.0 mg/kg/injection, schedule: Q01DX005 (ip), vehicle: Klucel + Tween-80) was 91 % of control.

In the case of CC(=O)NNC(=O)CCCCCCC(=O)NNC(C)=O, the T/C [23] is reported as 98 % of control and the T/C [24] is reported as 98 % of control.

For C[S+](C)CCCNC(=O)c1csc(-c2csc(N)n2)n1, the T/C (dose: 6.25 mg/kg/injection, schedule: Q01DX005 (ip), vehicle: water) was 100 % of control, the T/C (dose: 12.5 mg/kg/injection, schedule: Q01DX005 (ip), vehicle: water) was 96 % of control and the T/C (dose: 25.0 mg/kg/injection, schedule: Q01DX005 (ip), vehicle: water) was 96 % of control.

CCC(=NCCN=C(CC)c1cc(C)ccc1O)c1cc(C)ccc1O was tested, and the T/C [23] was 101 % of control, the T/C [24] was 108 % of control and the T/C (dose: 200.0 mg/kg/injection, schedule: Q01DX005 (ip), vehicle: Klucel (hydroxypropylcellulose) (HPC)) was 111 % of control.

In the case of O=[N+]([O-])c1ccc(N=Nc2ccc(O)cc2O)cc1, the T/C (dose: 100.0 mg/kg/injection, schedule: Q04DX003 (ip), vehicle: saline) is reported as 100 % of control, the T/C (dose: 200.0 mg/kg/injection, schedule: Q04DX003 (ip), vehicle: saline) is reported as 114 % of control and the T/C (dose: 400.0 mg/kg/injection, schedule: Q04DX003 (ip), vehicle: saline) is reported as 115 % of control.
